From ChEMBL document CHEMBL1151153, “Chemistry of Sponges, VII. 11,19-Dideoxyfistularin 3 and 11-Hydroxyaerothionin, Bromotyrosine Derivatives from Pseudoceratina durissima” (J Nat Prod, 1990)
The source made the active and inactive calls.

Columns and labels:
Type in all cases: functional, organism-based
Staphylococcus aureus [1] = test: Antimicrobial activity against Staphylococcus aureus at 100 ug/disk
Bacillus subtilis [2] = test: Antimicrobial activity against Bacillus subtilis at 50 ug/disk
Candida albicans [3] = test: Antimicrobial activity against Candida albicans at 50 ug/disk
Candida albicans [4] = test: Antimicrobial activity against Candida albicans at 25 ug/disk
Bacillus subtilis [5] = test: Antimicrobial activity against Bacillus subtilis at 10 ug/disk
Staphylococcus aureus [6] = test: Antimicrobial activity against Staphylococcus aureus at 25 ug/disk

Measured: Activity

COC1=C(Br)[C@H](O)[C@@]2(C=C1Br)CC(C(=O)NCCCCCNC(=O)C1=NO[C@]3(C=C(Br)C(OC)=C(Br)[C@@H]3O)C1)=NO2
active: Staphylococcus aureus [1] | Bacillus subtilis [2] | Candida albicans [3]

COC1=C(Br)[C@H](O)[C@@]2(C=C1Br)CC(C(=O)NCCCCNC(=O)C1=NO[C@]3(C=C(Br)C(OC)=C(Br)[C@@H]3O)C1)=NO2
active: Staphylococcus aureus [1] | Bacillus subtilis [2] | Candida albicans [3]

COC1=C(Br)[C@@H](O)[C@]2(C=C1Br)CC(C(=O)NCCc1cc(Br)c(OCCCNC(=O)C3=NO[C@]4(C=C(Br)C(OC)=C(Br)[C@@H]4O)C3)c(Br)c1)=NO2
active: Candida albicans [4] | Bacillus subtilis [5] | Staphylococcus aureus [6]

COC1=C(Br)[C@@H](O)[C@]2(C=C1Br)CC(C(=O)NCCC(O)CNC(=O)C1=NO[C@]3(C=C(Br)C(OC)=C(Br)[C@@H]3O)C1)=NO2 (some centres not stated)
active: Staphylococcus aureus [1] | Bacillus subtilis [2] | Candida albicans [3]
